pIC50: −log10 of the molar value. Entries after “also recorded” stand apart in the source; their conditions may differ.
Tests used:
[1] = target: Aβ(1–42)/calbindin-D28k complex (Homo sapiens, UniProt P05067); assay: Antagonism of Aβ(1–42) HiLyte-Fluor555/calbindin-D28k interaction (fluorescence); format: biochemical, human recombinant calbindin-D28k
Protocol: The purified protein were aliquoted and conserved in 30% glycerol at −80 °C until use.

Aβ(1–42)/CaM complex = target: T1, Aβ(1–42)/CaM complex (Homo sapiens, UniProt P05067); assay: Antagonism of Aβ(1–42) HiLyte-Fluor555/CaM interaction (fluorescence); format: biochemical, Bovine brain CaM
T1 construct: purchased Merck-Sigma-Aldrich (CaM); AnaSpec (labelled Aβ peptide); host or cells: bovine brain
T1 sequence (P05067 672-713 limits assumed, one chain of several): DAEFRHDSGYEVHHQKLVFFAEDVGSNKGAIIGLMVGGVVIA
Protocol: Human Aβ(1–42)-HiLyte^TM-Fluor555 was purchased from AnaSpec (Freemont, CA, USA). […] His6 was purchased from Quimigen (Madrid, Spain). Bovine brain CaM and Thrombin Clean Cleavage^TM kit were purchased from Merck-Sigma-Aldrich (Madrid, Spain).
Fluorescence measurements were performed using a Fluoromax+ fluorescence Spectrophotometer (Horiba Jobin Yvon IBH Ltd., Glasgow, UK) in quartz cuvettes of 1cm light pathlength with a total volume of 2.5 mL at room temperature (24–25 °C), with excitation and emission slits of 5 nm.
The measurements of the kinetics of fluorescence have been performed in buffer 50 mM N-[2-hydroxyethyl] piperazine-N′-[2-ethanesulfonic acid], 100 mM KCl and 50 µM CaCl2 (pH 7.05).
CaM and calbindin-D28k were added from concentrated stock solutions freshly prepared in the assay buffer used in the fluorescence measurements, such that the total added volume was always lower than 10 μL.

[2] = system: human recombinant Cb5R with a His6-tag; assay: FRET between FAD of His6-tagged Cb5R and Aβ(1–42) HiLyte-Fluor555; format: binding; settings: calculated for saturation by Aβ(1–42) HiLyte-Fluor555
Protocol: (§1) The assay buffer was 20 mM phosphate/0.1 mM diethylenetriaminepentaacetic acid (pH 7).

[3] = system: human recombinant Cb5R with a His6-tag; assay: Titration of FAD fluorescence of His6-tagged Cb5R; format: binding
Protocol: as §1

[4] = system: human recombinant Cb5R with a His6-tag; assay: Inhibition of NADH-dependent Cb5 reductase activity of His6-tagged Cb5R; format: biochemical; settings: pH 7, 5 μM Cb5, 0.25 mM NADH
Protocol: The reaction was started by the addition of 0.25 mM NADH after 10 min preincubation of the Cb5R in the assay medium, and initial rates were measured during periods of time ranging between 5 and 10 min, with a less than 10% drop in the Cb5 concentration in the assay cuvette. The Cb5 reductase activity was calculated from the change of absorbance at 550 nm using a differential extinction coefficient between reduced and oxidized Cb5 of 16.5 mM^−1·cm^−1, as in previous works [67, 69].

[5] = cited from earlier work
Excerpt: Aβ peptides bind to ganglioside-clustered raft-like membrane microdomains, which foster the formation of Aβ oligomers and fibrils in a cholesterol-dependent manner. […] Moreover, plasma membrane lipid rafts play an active role in extracellular Aβ uptake and internalization in neurons. After the uptake of extracellular Aβ(1–42) into neurons, the intracellular ...

[6] = 177 μM in phosphate-buffered saline; Tricine-SDS-PAGE; cited from earlier work

Chain of Aβ(1–42)/calbindin-D28k complex (P05067 672-713 limits assumed, one chain of several): as above

## N[C@@H](Cc1c[nH]cn1)C(=O)N[C@@H](Cc1c[nH]cn1)C(=O)N[C@@H](Cc1c[nH]cn1)C(=O)N[C@@H](Cc1c[nH]cn1)C(=O)N[C@@H](Cc1c[nH]cn1)C(=O)N[C@@H](Cc1c[nH]cn1)C(=O)O [His6, hexa-histidine]
[1]
  pIC50: ≥ 6.00
Aβ(1–42)/CaM complex
  pIC50: ≥ 6.00

## Aβ(1–42) HiLyte^TM-Fluor555: Human Aβ(1–42) with HiLyte-Fluor555 dye covalently bound to ASP1; AnaSpec
[2]
  quenching of donor FAD fluorescence at saturation: 70 ± 7%

## Aβ(1–42): prevalent Aβ peptide found in the amyloid plaques of AD patients; supplied by StabVida and GenicBio
[3]; Figure 5 fit, 1:1 binding, triplicate
  fitted maximum of FAD fluorescence increase (ΔF/F0): 0.5227
[3]; absence vs presence of 5 μM Cb5
  effect of Cb5 on the titration of FAD fluorescence: the same in the absence and presence of 5 μM of Cb5; also recorded: not a significant difference
[4]
  inhibition of Cb5 reductase activity (in words): potent inhibition of this activity by nanomolar Aβ(1–42) concentrations
[5]
  critical concentration that induces fibrillization: submicromolar range
[6]
  fraction of monomers and higher molecular species: almost undetectable
